Data from patent US8252832B2, “Kinesin inhibitors as cancer therapeutics” (Novartis AG, priority 2007, dated 2012).

Experiments:
[1] = target: T1, motor domain of human KSP (Eg 5, KNSL1) (Homo sapiens, UniProt P52732); assay: Assay for determining KSP activity (microtubule/KSP ATPase, Biomol Green); format: biochemical; conditions: read-out: In vitro activity (IC-50 - nm)
T1 construct: KSP motor protein (i.e., the KSP motor domain); made in house
T1 sequence (P52732 18-359 limits assumed): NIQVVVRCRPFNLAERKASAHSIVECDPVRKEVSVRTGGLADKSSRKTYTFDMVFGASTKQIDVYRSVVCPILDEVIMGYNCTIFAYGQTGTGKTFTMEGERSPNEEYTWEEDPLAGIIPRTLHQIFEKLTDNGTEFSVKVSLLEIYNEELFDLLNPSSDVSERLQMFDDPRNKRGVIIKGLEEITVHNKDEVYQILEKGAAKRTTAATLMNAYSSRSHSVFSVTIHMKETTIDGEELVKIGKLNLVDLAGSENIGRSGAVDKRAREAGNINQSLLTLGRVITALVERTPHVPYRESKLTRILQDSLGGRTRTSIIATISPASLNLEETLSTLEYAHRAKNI
Procedure: Purified microtubules obtained from bovine brain were purchased from Cytoskeleton Inc. (Denver, Colo., USA). The motor domain of human KSP (Eg 5, KNSL1) was cloned, expressed, and purified to greater than 95% homogeneity. Biomol Green™ was purchased from Affinity Research Products Ltd. (Matford Court, Exeter, Devon, United Kingdom). Microtubules and KSP motor protein (i.e., the KSP motor domain) were diluted in assay buffer (20 mM Tris-HCl (pH 7.5), 1 mM MgCl2, 10 mM DTT and 0.25 mg/mL BSA) to a final concentration of 35 μg/mL microtubules and 45 nM KSP. The microtubule/KSP mixture was then pre-incubated at 37° C. for 10 min to promote the binding of KSP to microtubules.
To each well of the testing plate (384-well plate) containing 1.25 μL of inhibitor or test compound in DMSO (or DMSO only, in the case of controls) were added 25 μL of ATP solution (ATP diluted to a concentration of 300 μM in assay buffer) and 25 μL of the above-described microtubule/KSP solution. The plates were incubated at RT for 1 hour. Following incubation, 65 μL of Biomol Green™ (a malachite green-based dye that detects the release of inorganic phosphate) was added to each well. The plates were incubated for an additional 5-10 minutes then the absorbance at 630 nm was determined using a Victor II plate reader. The amount of absorbance at 630 nm corresponded to the amount of KSP activity in the samples. The IC50 of each inhibitor or test compound was then determined based on the decrease in absorbance at 630 nm at each concentration, via nonlinear regression using either XLFit for Excel or Prism data analysis software by GraphPad Software Inc.

tumor cell lines = assay: Inhibition of cellular proliferation, CellTiter-Glo, 72 hours, all cell lines tested; format: cell-based; conditions: 72 hours of continuous compound exposure
Text: Cell lines used were as follows: HCT-116 (National Cancer Institute's DCTF Tumor Repository, catalog #NCI-502568, Rockville, Md.), HCT-15 (National Cancer Institute's DCTF Tumor Repository, catalog#NCI-502711, Rockville, Md. available from American Type Tissue Collection, catalog #CLL-225), KB-3-1 (available from DSMZ, Deutsche Sammlung von Mikroorganismen und Zellkulturen GmbH (German Collection of Microorganisms and Cell Cultures—catalog number ACC 158), KB-V1 (available from DSMZ—catalog number ACC 149), AGS (available from American Type Culture Collection, Manassas Va., catalog number CRL-1739™), N87 (available from American Type Culture Collection, Manassas Va., catalog number CRL-5822), Hel92.1.7 (available from American Type Culture Collection, Manassas Va., catalog number TIB 180), K562 (available from American Type Culture Collection, Manassas Va., catalog number CRL-243™), MV4; 11 (American Tissue Culture Collection, Manassas Va., catalog number CRL-9591) and U937 (available from American Type Culture Collection, Manassas Va., catalog number CRL-1593.2).
Cells were plated in 96-well plates at densities of about 500 cells per well of a 96-well plate and allowed to grow for 24 hours. […] The amount of luminescence was determined for each well using a Wallac Trilux plate reader, which correlates with the number of cells per well. […]

## CC(C)(C)[C@H](c1nc(-c2cc(F)ccc2F)cn1Cc1ccccc1)N(CC[C@H](N)CF)C(=O)CO [Compound IIa]
[1]
  IC50: 0.8 nM
Tumor cell lines
  GI50: 0.1 to 6.5 nM
